Assay results taken from patent US10758534B2 (Vertex Pharmaceuticals Incorporated, priority 2014, dated 2020).

Target: T1, F508del (Homo sapiens, UniProt P13569, DEL508-508)
T1 construct: expressed in transfected cells
Experiment: Protocol 1: membrane potential optical assay (FLIPR III, voltage sensing dye), identification of potentiator compounds
Assay type: cell-based
Conditions: Table 3, compounds of Table 1
Outline: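 Read-out: change in voltage-sensing dye fluorescence (FLIPR III) as a measure of F508del conductance. Temperature-corrected (27° C, 24 hrs) NIH 3T3 cells expressing F508del are pretreated with potentiators, dye-loaded, then stimulated with forskolin under a chloride ion gradient using chloride-free gluconate bath.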

T1 sequence (P13569 with tags, fused parts or gaps DEL508-508): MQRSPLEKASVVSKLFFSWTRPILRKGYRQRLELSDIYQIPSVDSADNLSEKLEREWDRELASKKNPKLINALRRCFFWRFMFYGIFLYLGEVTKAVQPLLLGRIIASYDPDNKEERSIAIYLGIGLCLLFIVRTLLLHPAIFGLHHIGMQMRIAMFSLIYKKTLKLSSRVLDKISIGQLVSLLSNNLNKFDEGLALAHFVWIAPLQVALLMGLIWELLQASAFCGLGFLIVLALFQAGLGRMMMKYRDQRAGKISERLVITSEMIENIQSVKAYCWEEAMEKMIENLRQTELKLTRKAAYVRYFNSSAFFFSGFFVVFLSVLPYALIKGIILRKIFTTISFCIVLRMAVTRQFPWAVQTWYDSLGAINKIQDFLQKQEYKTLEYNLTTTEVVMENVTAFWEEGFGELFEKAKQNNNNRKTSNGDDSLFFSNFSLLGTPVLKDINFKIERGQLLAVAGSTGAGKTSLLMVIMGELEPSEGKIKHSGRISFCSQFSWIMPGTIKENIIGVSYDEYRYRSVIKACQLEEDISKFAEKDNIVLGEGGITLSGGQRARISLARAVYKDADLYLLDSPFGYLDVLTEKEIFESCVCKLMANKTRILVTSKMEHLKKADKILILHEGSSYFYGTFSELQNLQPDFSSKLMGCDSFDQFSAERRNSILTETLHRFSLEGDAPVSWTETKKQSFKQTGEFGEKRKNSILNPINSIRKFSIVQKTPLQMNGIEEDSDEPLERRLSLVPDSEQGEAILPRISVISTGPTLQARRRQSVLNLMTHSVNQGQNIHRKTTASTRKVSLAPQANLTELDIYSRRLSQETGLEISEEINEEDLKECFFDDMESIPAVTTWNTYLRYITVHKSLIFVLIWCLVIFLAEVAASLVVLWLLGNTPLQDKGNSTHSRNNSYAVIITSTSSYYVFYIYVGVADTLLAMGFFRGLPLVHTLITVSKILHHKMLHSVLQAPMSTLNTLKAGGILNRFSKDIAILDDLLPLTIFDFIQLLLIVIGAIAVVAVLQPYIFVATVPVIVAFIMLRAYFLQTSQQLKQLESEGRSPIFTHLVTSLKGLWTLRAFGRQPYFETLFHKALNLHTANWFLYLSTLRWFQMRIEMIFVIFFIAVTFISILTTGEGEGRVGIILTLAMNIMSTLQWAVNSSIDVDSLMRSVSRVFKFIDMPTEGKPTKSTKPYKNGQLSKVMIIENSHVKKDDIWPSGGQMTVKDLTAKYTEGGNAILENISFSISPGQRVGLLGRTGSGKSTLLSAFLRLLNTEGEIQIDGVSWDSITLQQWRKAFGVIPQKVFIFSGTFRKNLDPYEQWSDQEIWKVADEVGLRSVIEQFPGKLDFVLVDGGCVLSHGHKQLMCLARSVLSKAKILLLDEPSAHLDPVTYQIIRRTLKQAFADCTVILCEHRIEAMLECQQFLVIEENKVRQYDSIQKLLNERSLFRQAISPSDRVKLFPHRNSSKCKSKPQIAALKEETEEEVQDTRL

Structure (SMILES)	EC30
C[C@@H]1CN(c2nc(C3=CC(C)(C)CCC3=O)ccc2C(=O)NS(=O)(=O)c2cccc(N)n2)C(C)(C)C1 [Compound 1462, N-[(6-amino-2-pyridyl)sulfonyl]-6-(3,3-dimethyl-6-oxo-cyclohexen-1-yl)-2-[(4S)-2,2,4-trimethylpyrrolidin-1-yl]pyridine-3-carboxamide]	+++ (“+++” means <3 uM)
CC(C)COc1cc(F)cc(-c2ccc(C(=O)NS(=O)(=O)c3cccc(N)n3)c(OC3(C)CCC3)n2)c1 [Compound 1644, N-[(6-amino-2-pyridyl)sulfonyl]-6-(3-fluoro-5-isobutoxy-phenyl)-2-(1-methylcyclobutoxy)pyridine-3-carboxamide]	+++ (“+++” means <3 uM)
CC(C)COc1cc(F)cc(-c2ccc(C(=O)NS(=O)(=O)c3cccc(N)n3)c(N3CCC4(CC4)C3)n2)c1 [Compound 1061, N-[(6-amino-2-pyridyl)sulfonyl]-2-(6-azaspiro[2.4]heptan-6-yl)-6-(3-fluoro-5-isobutoxy-phenyl)pyridine-3-carboxamide]	+++ (“+++” means <3 uM)
CC1CN(c2nc(-c3cc(F)cc(OC(C)C)c3)ccc2C(=O)NS(=O)(=O)c2cccc(N)n2)C(C)(C)C1 (centres unmarked) [Compound 972, N-[(6-amino-2-pyridyl)sulfonyl]-6-(3-fluoro-5-isopropoxy-phenyl)-2-(2,2,4-trimethylpyrrolidin-1-yl)pyridine-3-carboxamide]	+++ (“+++” means <3 uM)
Cc1cc(C)c(Oc2nc(C3(C)CC3)ccc2C(=O)NS(=O)(=O)c2ccc(N)cc2)c(C)c1 [Compound 1297, N-(4-aminophenyl)sulfonyl-6-(1-methylcyclopropyl)-2-(2,4,6-trimethylphenoxy)pyridine-3-carboxamide]	+++ (“+++” means <3 uM)
CC(C)COc1cc(F)cc(-c2ccc(C(=O)NS(=O)(=O)c3cccc(N)n3)c(OCCCCc3ccccc3)n2)c1 [Compound 1686, N-[(6-amino-2-pyridyl)sulfonyl]-6-(3-fluoro-5-isobutoxy-phenyl)-2-(4-phenylbutoxy)pyridine-3-carboxamide]	+++ (“+++” means <3 uM)
CCOc1cccc2c1CN(Cc1c(C)cc(C)cc1C)C2(C)C(=O)NS(=O)(=O)c1cccc(N)n1 (centres unmarked) [Compound 1346, N-[(6-amino-2-pyridyl)sulfonyl]-4-ethoxy-1-methyl-2-[(2,4,6-trimethylphenyl)methyl]isoindoline-1-carboxamide]	+++ (“+++” means <3 uM)
CC(C)COc1cccc(-c2ccc(C(=O)NS(=O)(=O)c3cccc(N)n3)c(N3[C@H](C)CC[C@@H]3C)n2)c1 [Compound 957, N-[(6-amino-2-pyridyl)sulfonyl]-2-[(2S,5R)-2,5-dimethylpyrrolidin-1-yl]-6-(3-isobutoxyphenyl)pyridine-3-carboxamide]	+++ (“+++” means <3 uM)
CC(C)Oc1ccc(-c2ccc(C(=O)NS(=O)(=O)c3cccc(N)n3)c(N3CCC[C@H](c4ccccc4)C3)n2)cn1 [Compound 1209]	+++ (“+++” means <3 uM)
Cc1cc(C)c(Oc2ncc(Cc3ccccc3)cc2C(=O)NS(=O)(=O)c2cccc(N)n2)c(C)c1 [Compound 1233, N-[(6-amino-2-pyridyl)sulfonyl]-5-benzyl-2-(2,4,6-trimethylphenoxy)pyridine-3-carboxamide]	++ (“++” means between 3 uM and 10 uM)
Cc1cc(C)c(Oc2nc(C3CCCCC3)ccc2C(=O)NS(=O)(=O)c2ccc[nH]c2=O)c(C)c1 [Compound 1357, 6-cyclohexyl-N-[(2-oxo-1H-pyridin-3-yl)sulfonyl]-2-(2,4,6-trimethylphenoxy)pyridine-3-carboxamide]	+++ (“+++” means <3 uM)
CCOc1cccc2c1CN(Cc1c(C)cccc1F)C2(C)C(=O)NS(=O)(=O)c1cccc(N)n1 (centres unmarked) [Compound 1392, N-[(6-amino-2-pyridyl)sulfonyl]-4-ethoxy-2-[(2-fluoro-6-methyl-phenyl)methyl]-1-methyl-isoindoline-1-carboxamide]	+++ (“+++” means <3 uM)
CC(C)COc1cc(F)cc(-c2ccc(C(=O)NS(=O)(=O)c3cccc(N)n3)c(OCCC3CC3)n2)c1 [Compound 1685, N-[(6-amino-2-pyridyl)sulfonyl]-2-(2-cyclopropylethoxy)-6-(3-fluoro-5-isobutoxy-phenyl)pyridine-3-carboxamide]	+++ (“+++” means <3 uM)
CCOc1cccc2c1CN(Cc1c(C)cc(C)cc1C)C2(C)C(=O)NS(=O)(=O)c1cccnc1N (centres unmarked) [Compound 1591, N-[(2-amino-3-pyridyl)sulfonyl]-4-ethoxy-1-methyl-2-[(2,4,6-trimethylphenyl)methyl]isoindoline-1-carboxamide]	+++ (“+++” means <3 uM)

Next, values leading:

EC30	Structure (SMILES)
+++ (“+++” means <3 uM)	CCN(CC)c1ccc(C)c(-c2ccc(C(=O)NS(=O)(=O)c3cccc(N)n3)c(N3CC(C)CC3(C)C)n2)n1 (centres unmarked) [Compound 1383, N-[(6-amino-2-pyridyl)sulfonyl]-6-[6-(diethylamino)-3-methyl-2-pyridyl]-2-(2,2,4-trimethylpyrrolidin-1-yl)pyridine-3-carboxamide]
+++ (“+++” means <3 uM)	COc1nccc(-c2ccc(C(=O)NS(=O)(=O)c3cccc(N)n3)c(Oc3c(C)cc(C)cc3C)n2)c1Cl [Compound 1284, N-[(6-amino-2-pyridyl)sulfonyl]-6-(3-chloro-2-methoxy-4-pyridyl)-2-(2,4,6-trimethylphenoxy)pyridine-3-carboxamide]
+ (“+” means greater than 10 uM)	CC(C)(C)c1cc(C(=O)NS(=O)(=O)c2cccc(N)c2)n(Cc2ccc(Cl)cc2Cl)n1 [Compound 797, N-(3-aminophenyl)sulfonyl-5-tert-butyl-2-[(2,4-dichlorophenyl)methyl]pyrazole-3-carboxamide]
+++ (“+++” means <3 uM)	CC1CN(c2ncccc2C(=O)NS(=O)(=O)c2cccc(NCc3ccccc3)n2)C(C)(C)C1 (centres unmarked) [Compound 1938, N—[[6-(benzylamino)-2-pyridyl]sulfonyl]-2-(2,2,4-trimethylpyrrolidin-1-yl)pyridine-3-carboxamide]
++ (“++” means between 3 uM and 10 uM)	CCOc1cc(C)cc(-c2ccc(C(=O)NS(=O)(=O)c3ccc[nH]c3=O)c(Oc3c(C)cc(C)cc3C)n2)n1 [Compound 1768, 6-(6-ethoxy-4-methyl-2-pyridyl)-N-[(2-oxo-1H-pyridin-3-yl)sulfonyl]-2-(2,4,6-trimethylphenoxy)pyridine-3-carboxamide]
+++ (“+++” means <3 uM)	CCOc1cccc2c1CN(Cc1cc(F)cc(OC)c1)C2(C)C(=O)NS(=O)(=O)c1cccc(N)n1 (centres unmarked) [Compound 1421, N-[(6-amino-2-pyridyl)sulfonyl]-4-ethoxy-2-[(3-fluoro-5-methoxy-phenyl)methyl]-1-methyl-isoindoline-1-carboxamide]
+++ (“+++” means <3 uM)	CC(C)[C@H](C)Nc1ccc(-c2ccc(C(=O)NS(=O)(=O)c3cccc(N)n3)c(N3[C@H](C)CC[C@@H]3C)n2)cn1 [Compound 1399, N-[(6-amino-2-pyridyl)sulfonyl]-6-[6-[[(1 S)-1,2-dimethylpropyl]amino]-3-pyridyl]-2-[(2S,5R)-2,5-dimethylpyrrolidin-1-yl]pyridine-3-carboxamide]
+++ (“+++” means <3 uM)	CCOc1cccc2c1CN(Cc1c(C)cc(C)cc1C)[C@]2(C)C(=O)NS(=O)(=O)c1ccc[nH]c1=O [Compound 1541, (1S)-4-ethoxy-1-methyl-N-[(2-oxo-1H-pyridin-3-yl)sulfonyl]-2-[(2,4,6-trimethylphenyl)methyl]isoindoline-1-carboxamide]
+++ (“+++” means <3 uM)	CCc1ccc(-c2ccc(C(=O)NS(=O)(=O)c3ccc[nH]c3=O)c(Oc3c(C)cc(C)cc3C)n2)cc1 [Compound 831, 6-(4-ethylphenyl)-N-[(2-oxo-1H-pyridin-3-yl)sulfonyl]-2-(2,4,6-trimethylphenoxy)pyridine-3-carboxamide]
++ (“++” means between 3 uM and 10 uM)	Cc1cc(-c2ccc(C(=O)NS(=O)(=O)c3cccc(N)n3)c(N3C[C@@H](C)CC3(C)C)n2)cnc1OCCOCCOCCOC(C)C [Compound 1787, N-[(6-amino-2-pyridyl)sulfonyl]-6-[6-[2-[2-(2-isopropoxyethoxy)ethoxy]ethoxy]-5-methyl-3-pyridyl]-2-[(4S)-2,2,4-trimethylpyrrolidin-1-yl]pyridine-3-carboxamide]
++ (“++” means between 3 uM and 10 uM)	Cc1ccc(Oc2nc(-c3cc(F)cc(OC(C)C)c3)ccc2C(=O)NS(=O)(=O)c2cc[nH]n2)c(C)c1 [Compound 1213, 2-(2,4-dimethylphenoxy)-6-(3-fluoro-5-isopropoxy-phenyl)-N-(1H-pyrazol-3-ylsulfonyl)pyridine-3-carboxamide]
+++ (“+++” means <3 uM)	CCOc1ccc(-c2ccc(C(=O)NS(=O)(=O)c3cc[nH]n3)c(Oc3ccc(C)cc3C)n2)cc1 [Compound 813, 2-(2,4-dimethylphenoxy)-6-(4-ethoxyphenyl)-N-(1H-pyrazol-3-ylsulfonyl)pyridine-3-carboxamide]
++ (“++” means between 3 uM and 10 uM)	COCC1CCCN(c2cccc(S(=O)(=O)NC(=O)c3cccnc3N3CC(C)CC3(C)C)n2)C1 (centres unmarked) [Compound 1805, N—[[6-[3-(methoxymethyl)-1-piperidyl]-2-pyridyl]sulfonyl]-2-(2,2,4-trimethylpyrrolidin-1-yl)pyridine-3-carboxamide]
+++ (“+++” means <3 uM)	CC1CN(c2ncccc2C(=O)NS(=O)(=O)c2cccc(OCC3CCNC3)n2)C(C)(C)C1 (centres unmarked) [Compound 1734, N—[[6-(pyrrolidin-3-ylmethoxy)-2-pyridyl]sulfonyl]-2-(2,2,4-trimethylpyrrolidin-1-yl)pyridine-3-carboxamide]
+++ (“+++” means <3 uM)	Cc1cc(C)c(Oc2nc(C(C)(C)C)ccc2C(=O)NS(=O)(=O)c2cccc(NCCN)n2)c(C)c1 [Compound 1054, N-[[6-(2-aminoethylamino)-2-pyridyl]sulfonyl]-6-tert-butyl-2-(2,4,6-trimethylphenoxy)pyridine-3-carboxamide]
